Calls of active or inactive are those of the source.
Legend:
HeLa = test: ATP-based viability loss in HeLa cells – cell-based, CellTiter-Glo luminescence, cherry-pick samples, cytotoxicity control for MITF activator project, dose response (AID 540259); assay type: functional; conditions: Homo sapiens
Streptococcus = test: GAS UMAA2166 growth inhibition – luminescence, BacTiterGlo, counter-screen for streptokinase expression inhibitor project, dose response (AID 1915); assay type: functional, organism-based;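 also: potency for reduction of bacterial viability or growth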
[1] = system: Streptococcus sp. 'group A'; test: Streptococcus pyogenes SK(-)GAS viability under kanamycin – luminescence, BacTiterGlo, confirmation, counter-screen for streptokinase expression inhibitor project, dose response (AID 1900); assay type: functional, organism-based
Streptokinase A = biological target: T1, Streptokinase A (Streptococcus pyogenes serotype M1, UniProt P10520); test: viability-normalized secreted streptokinase activity reduction – plasminogen activation absorbance, OD405, dose response (AID 1914); assay type: functional, Streptococcus pyogenes M1 GAS;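 also: secreted streptokinase activity via plasminogen activation per viability signal from cell pellet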
T1 sequence (P10520 whole entry): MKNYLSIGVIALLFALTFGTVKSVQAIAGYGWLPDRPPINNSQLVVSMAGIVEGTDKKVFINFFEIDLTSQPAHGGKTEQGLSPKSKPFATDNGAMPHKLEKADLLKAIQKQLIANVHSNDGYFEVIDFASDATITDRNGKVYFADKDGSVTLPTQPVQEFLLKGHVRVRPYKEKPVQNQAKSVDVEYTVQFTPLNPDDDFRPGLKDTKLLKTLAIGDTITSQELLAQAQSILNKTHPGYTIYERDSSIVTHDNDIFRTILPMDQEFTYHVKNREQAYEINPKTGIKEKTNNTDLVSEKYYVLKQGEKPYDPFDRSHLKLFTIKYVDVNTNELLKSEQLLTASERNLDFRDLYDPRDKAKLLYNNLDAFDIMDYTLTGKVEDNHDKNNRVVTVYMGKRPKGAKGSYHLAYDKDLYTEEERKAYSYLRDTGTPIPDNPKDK

[2] = Vero E6 cell cytotoxicity, dose response, cytotoxicity control for non-replicating M. tuberculosis project, secondary assay (AID 492998); assay type: functional, VeroE6; conditions: Vero C1008
[3] = THP-1 cell cytotoxicity, dose response, cytotoxicity control for non-replicating M. tuberculosis project (AID 489025); assay type: functional
cells = assay type: functional
Cytochrome P450 2C9 = Cytochrome P450 2C9 (Homo sapiens, UniProt P11712)
Cytochrome P450 3A4 = Cytochrome P450 3A4 (Homo sapiens, UniProt P08684);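 also: CYP3A4 tested as one member of a cytochrome P450 panel screen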
[4] = microbe, parasite or virus in culture; assay type: functional; conditions: Mycobacterium tuberculosis
H4 = test: Luminescence Cell-Based Dose Response HTS to Identify Activators of 5'UTR Stem-Loop Driven Prion Protein mRNA Translation in H4 Neuroglioblastoma Cells. [Related pubchem assays: 1829 (Project Summary), 1814 (Primary HTS)]; assay type: functional; conditions: Homo sapiens
Cytochrome P450 2C19 = Cytochrome P450 2C19 (Homo sapiens, UniProt P33261); test: Cytochrome panel assay with activity outcomes. Panel member name: p450-cyp2c19 Compounds with AC50 equal or less than 10 uM are considered active; assay type: functional; conditions: read-out: AC50
Sequence of Cytochrome P450 2C19 (P33261 whole entry): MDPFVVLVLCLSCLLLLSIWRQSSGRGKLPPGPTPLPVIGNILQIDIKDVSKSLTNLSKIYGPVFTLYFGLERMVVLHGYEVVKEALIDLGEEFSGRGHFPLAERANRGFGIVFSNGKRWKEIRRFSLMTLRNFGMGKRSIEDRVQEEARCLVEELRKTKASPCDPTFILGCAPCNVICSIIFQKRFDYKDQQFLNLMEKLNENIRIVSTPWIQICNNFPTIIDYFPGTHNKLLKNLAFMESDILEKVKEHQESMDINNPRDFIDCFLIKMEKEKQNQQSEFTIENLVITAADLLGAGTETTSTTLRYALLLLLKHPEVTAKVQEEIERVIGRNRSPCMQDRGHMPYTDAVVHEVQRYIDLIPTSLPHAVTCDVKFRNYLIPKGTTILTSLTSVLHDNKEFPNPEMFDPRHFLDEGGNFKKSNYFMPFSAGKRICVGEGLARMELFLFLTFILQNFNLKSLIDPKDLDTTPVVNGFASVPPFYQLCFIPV

Sequence of Cytochrome P450 3A4 (P08684 whole entry): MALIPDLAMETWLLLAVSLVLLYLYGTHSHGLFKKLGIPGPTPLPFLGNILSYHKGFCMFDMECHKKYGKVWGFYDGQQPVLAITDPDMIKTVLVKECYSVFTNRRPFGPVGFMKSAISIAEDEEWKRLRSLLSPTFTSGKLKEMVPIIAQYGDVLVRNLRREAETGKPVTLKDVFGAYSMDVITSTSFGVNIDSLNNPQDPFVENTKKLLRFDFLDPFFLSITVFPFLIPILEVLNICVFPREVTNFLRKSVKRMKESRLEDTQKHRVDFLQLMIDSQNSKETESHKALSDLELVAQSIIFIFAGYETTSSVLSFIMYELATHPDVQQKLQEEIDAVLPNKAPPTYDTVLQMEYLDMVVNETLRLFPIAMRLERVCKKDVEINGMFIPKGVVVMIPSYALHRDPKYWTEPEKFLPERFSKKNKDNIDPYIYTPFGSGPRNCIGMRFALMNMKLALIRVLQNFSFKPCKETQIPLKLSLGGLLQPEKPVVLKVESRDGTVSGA
Sequence of Cytochrome P450 2C9 (P11712 whole entry): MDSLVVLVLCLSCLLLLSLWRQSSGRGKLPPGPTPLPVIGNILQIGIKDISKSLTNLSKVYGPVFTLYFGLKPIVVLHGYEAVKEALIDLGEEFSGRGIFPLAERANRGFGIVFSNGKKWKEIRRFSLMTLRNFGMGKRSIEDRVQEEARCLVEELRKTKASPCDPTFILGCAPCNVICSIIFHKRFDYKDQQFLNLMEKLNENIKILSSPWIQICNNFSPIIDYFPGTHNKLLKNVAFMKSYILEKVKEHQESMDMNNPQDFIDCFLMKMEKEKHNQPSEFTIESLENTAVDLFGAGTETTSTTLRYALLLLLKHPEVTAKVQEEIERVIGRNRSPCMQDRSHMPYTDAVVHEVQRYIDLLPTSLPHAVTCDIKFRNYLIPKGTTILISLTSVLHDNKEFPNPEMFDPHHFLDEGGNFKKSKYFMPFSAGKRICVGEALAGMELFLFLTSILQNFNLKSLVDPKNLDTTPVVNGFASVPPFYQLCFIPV

SMILES: CC(C)Nc1cc(C(C)(C)C)nc2c(-c3ccccc3)cnn12
- AC50 (HeLa): 58.2 µM (active)
- EC50 (Streptococcus): 15.9 µM (active)
- EC50 [1]: 6.01 µM (active)
- EC50 (Streptokinase A): 13.6 µM (active)

SMILES: CC(C)c1nnc(NC(=O)c2c(O)c3cccc4c3n(c2=O)CCC4)s1
- CC50 [2]: 17.1 µM (active)
- CC50 [3]: 8.21 µM (active)
- IC50 (cells): 7.34 µM (active)

SMILES: O=C(COc1ccc(Cl)cc1)Nc1ccc(N2CCN(C(=O)c3ccco3)CC2)cc1
- AC50 (Cytochrome P450 2C9): 1.12 µM (inconclusive)
- AC50 (Cytochrome P450 3A4): inconclusive

SMILES: CCC(C)NC(=O)C1CCN(C(=O)c2ccccc2)CC1 (configuration not stated)
- AC50 (Cytochrome P450 3A4): inconclusive

SMILES: C=CCn1cccc(C(=O)Nc2ccc(Cl)cc2)c1=O
- AC50 (HeLa): 99.8 µM (active)

SMILES: O=C(NCCC1=CCCCC1)NC12CC3CC(CC(C3)C1)C2
- CC50 [4]: > 40 µM (active)
- AC50 (HeLa): 215 µM (active)
- EC50 (H4): 6.24 µM (active)

SMILES: O=C1N=C(N2CCC(Cc3ccccc3)CC2)S/C1=C/c1c[nH]nc1-c1ccccc1
- AC50 (Cytochrome P450 3A4): inconclusive

SMILES: C[C@]12CC[C@H]3c4ccc(O)cc4CC[C@@H]3[C@H]1CC[C@@H]2OC(=O)CCC1CCCC1
- AC50 (Cytochrome P450 2C19): 6.31 µM (inconclusive)
- AC50 (Cytochrome P450 3A4): inconclusive
